What all share (format): cell-based
The test system of one assay is microorganisms. Kind of assay: In vitro antimicrobial activity test, whole panel of test organisms. The following applies: across the test organisms of TABLE 3. Here is the method: (§1) The activity of the compounds of the present invention was evaluated using an in vitro assay. Microorganisms were prepared from growth on agar media, in broth culture, or from thawed cryopreserved cultures. Fungal cultures were filtered to remove mycelial elements.
(§2) Using Mueller Hinton II Broth, 0.9% saline or other appropriate media, a suspension of each culture was prepared and adjusted to a turbidity equivalent to that of a 0.5 McFarland Standard. (Cultures adjusted to the 0.5 McFarland Standard generally contain approximately 1.0×10^8 CFU/mL). The adjusted suspension for each culture was diluted 1:10 in the appropriate media so that the inoculum concentration approximates 1.0×10^7 CFU/mL.
(§3) The antimicrobial agent to be tested was weighed and diluted with a volume of sterile distilled water calculated to yield the necessary starting concentration. Serial 1:2 dilutions of the antimicrobial agent in sterile distilled water were prepared (approximately 10-12 test concentrations comprise a reasonable experimental range). A known amount of each antimicrobial dilution was combined with an aliquot of agar medium calculated to yield the desired final antimicrobial test concentration and dispensed onto plates.
(§4) The amount of antimicrobial agent to be weighed was determined using the following equation: […]
(§5) Antimicrobial stock solutions were prepared at concentrations 5-10 times the highest concentration to be tested (routinely 1024 μg/mL). […] The stock solution was diluted to appropriate concentration using sterile water to form a working solution. The working solution was diluted two-fold, in sterile water, until the desired concentration is obtained.
Mueller Hinton II agar was prepared as described by the manufacturer. Mueller Hinton II agar may be supplemented with 5% defibrinated sheep blood for testing streptococci. Agar was added to the serially diluted antimicrobial solution in each container. The solutions were mixed thoroughly and poured into petri dishes (about 25 mL/plate). The pH of the agar at 25° C. should be between 7.2 and 7.4. […]

For assay [1], the system named is Staphylococcus epidermidis. The assay is described as follows: In vitro antimicrobial activity, agar dilution MIC. Here is the method:
as §1, §2, §3, §4, §5
(§6) Mueller Hinton II agar was prepared as described by the manufacturer. Mueller Hinton II agar may be supplemented with 5% defibrinated sheep blood for testing streptococci. Agar was added to the serially diluted antimicrobial solution in each container. The solutions were mixed thoroughly and poured into petri dishes (about 25 mL/plate). The pH of the agar at 25° C. should be between 7.2 and 7.4.
(§7) At least one inocula control plate was inoculated (agar medium without antimicrobial agent) from each seed plate before inoculating test plates. Test plates were inoculated starting at the lowest concentration and proceeding to the highest concentration. After all test plates were inoculated, an additional control plate (agar medium without antimicrobial agent) was inoculated. The plates were incubated in a non-CO2 incubator (or CO2 incubator depending on growth requirements); 18-24 hours at 32-35° C. was sufficient for most organisms.
(§8) All inoculation points on the agar surface were examined for the presence of growth as compared to the inoculum control plates. The results were summarized and use to determine Minimal Inhibitory Concentrations (MICs): The MIC is the lowest concentration of the antimicrobial agent which prevents visible growth of the organism (negative score).
A general note: In agar dilution, organisms are placed on agar that contains the substance at set levels.

In a further assay the test system is Enterobacter hormaechei. The assay is described as follows: In vitro antimicrobial activity, agar dilution MIC. As to conditions: test organism 31, Enterobacter hormaechei. The protocol:
as §1, §2, §3, §4, §5, §6, §7, §8

A further assay has as its system Streptococcus pneumoniae. The assay is described as follows: In vitro antimicrobial activity, agar dilution MIC. The protocol: as §1, §2, §3, §4, §5, §6, §7, §8
In a further assay the test system is Morganella morganii. The assay is described as follows: In vitro antimicrobial activity, agar dilution MIC. Here is the method: as §1, §2, §3, §4, §5, §6, §7, §8
Assay [2] relates to Stenotrophomonas maltophilia. The assay is described as follows: In vitro antimicrobial activity, agar dilution MIC. The protocol:
as §1, §2, §3, §4, §5, §6, §7, §8

For the next assay, the system named is Streptococcus mitis. Kind of assay: In vitro antimicrobial activity, agar dilution MIC. The protocol:
as §1, §2, §3, §4, §5, §6, §7, §8

Another assay concerns MSSA. The assay is described as follows: In vitro antimicrobial activity, agar dilution MIC. As to conditions: test organism 6, MSSA. Here is the method:
as §1, §2, §3, §4, §5, §6, §7, §8

The test system of assay [3] is Staphylococcus haemolyticus. Kind of assay: In vitro antimicrobial activity, agar dilution MIC. The protocol:
as §1, §2, §3, §4, §5, §6, §7, §8

A further assay deals with Escherichia coli. The assay is described as follows: In vitro antimicrobial activity, agar dilution MIC. Here is the method:
as §1, §2, §3, §4, §5, §6, §7, §8

The test system of a further assay is Acinetobacter baumannii. The assay is described as follows: In vitro antimicrobial activity, agar dilution MIC. As to conditions: test organism 26, Acinetobacter baumannii. Here is the method:
as §1, §2, §3, §4, §5, §6, §7, §8

The subject of assay [4] is Corynebacterium amycolatum. Kind of assay: In vitro antimicrobial activity, agar dilution MIC. The protocol: as §1, §2, §3, §4, §5, §6, §7, §8
A further assay concerns Staphylococcus aureus. The assay is described as follows: In vitro antimicrobial activity, agar dilution MIC. Here is the method:
as §1, §2, §3, §4, §5, §6, §7, §8

The next assay concerns MRSE. The assay is described as follows: In vitro antimicrobial activity, agar dilution MIC. Here is the method:
as §1, §2, §3, §4, §5, §6, §7, §8

For another assay, the system named is Pseudomonas aeruginosa. Kind of assay: In vitro antimicrobial activity, agar dilution MIC. The protocol:
as §1, §2, §3, §4, §5, §6, §7, §8

The subject of the next assay is Serratia marcescens. Kind of assay: In vitro antimicrobial activity, agar dilution MIC. The protocol: as §1, §2, §3, §4, §5, §6, §7, §8
For a further assay, the system named is Acinetobacter junii. The assay is described as follows: In vitro antimicrobial activity, agar dilution MIC. Here is the method: as §1, §2, §3, §4, §5, §6, §7, §8
For a further assay, the system named is MRSA. Kind of assay: In vitro antimicrobial activity, agar dilution MIC. Here is the method:
as §1, §2, §3, §4, §5, §6, §7, §8

A further assay concerns Enterococcus faecalis. Kind of assay: In vitro antimicrobial activity, agar dilution MIC. The protocol:
as §1, §2, §3, §4, §5, §6, §7, §8

Consider `Nc1c(F)c(N2CC3CCCNC3C2)c(F)c2c1c(=O)c(C(=O)O)cn2C1CC1` (stereo not drawn) [Compound 3], for which, in the assay on microorganisms, the “antimicrobial activity compared to moxifloxacin (in words)” value is “showed increased antimicrobial activity against most microorganisms”.

Take moxifloxacin [reference compound]: the “Minimal Inhibitory Concentration (MIC)” value in [1] (test organism 7, Staphylococcus epidermidis) is 0.06; in [1] (test organism 8, Staphylococcus epidermidis), 1; in the assay on Enterobacter hormaechei, above 4; in the assay on Streptococcus pneumoniae (test organism 19, Streptococcus pneumoniae) it was 0.25; in the assay with Streptococcus pneumoniae (test organism 20, Streptococcus pneumoniae) it was “≦0.25”; in the assay on Morganella morganii (test organism 35, Morganella morganii), 0.5. Moreover, the “Minimal Inhibitory Concentration (MIC)” value in the assay with Morganella morganii (test organism 36, Morganella morganii) is 4; in assay [2] (test organism 41, Stenotrophomonas maltophilia) it was above 4; in assay [2] (test organism 42, Stenotrophomonas maltophilia) it was 0.125; in the assay with Streptococcus mitis (test organism 21, Streptococcus mitis), “≦0.25”; with Streptococcus mitis (test organism 22, Streptococcus mitis), 0.125; in the assay with Streptococcus mitis (test organism 23, Streptococcus mitis), 4. Further, the “Minimal Inhibitory Concentration (MIC)” value in the assay on MSSA is above 4; in [3] (test organism 12, Staphylococcus haemolyticus) it was 0.5; in assay [3] (test organism 13, Staphylococcus haemolyticus), 2; in [3] (test organism 14, Staphylococcus haemolyticus) it was above 4; in the assay on Escherichia coli (test organism 32, Escherichia coli), 0.125; in the assay on Escherichia coli (test organism 33, Escherichia coli), “≦0.25”. Besides, the “Minimal Inhibitory Concentration (MIC)” value in the assay on Escherichia coli (test organism 34, Escherichia coli) is above 4; in the assay with Acinetobacter baumannii, “≦0.25”; in assay [4] (test organism 24, Corynebacterium amycolatum), 0.03; in assay [4] (test organism 25, Corynebacterium amycolatum), above 4; in the assay on Staphylococcus aureus (test organism 1, Staphylococcus aureus) it was 0.06; in the assay with Staphylococcus aureus (test organism 2, Staphylococcus aureus), “≦0.25”. In addition, the “Minimal Inhibitory Concentration (MIC)” value in the assay on MRSE (test organism 9, MRSE) is above 2; in the assay with MRSE (test organism 10, MRSE), above 2; in the assay on MRSE (test organism 11, MRSE), above 4; in the assay on Pseudomonas aeruginosa (test organism 37, Pseudomonas aeruginosa) it was above 4; in the assay on Pseudomonas aeruginosa (test organism 38, Pseudomonas aeruginosa) it was 4; in the assay on Serratia marcescens (test organism 39, Serratia marcescens), 2. Moreover, the “Minimal Inhibitory Concentration (MIC)” value is given as 2 in the assay on Serratia marcescens (test organism 40, Serratia marcescens); “≦0.25” in the assay on Acinetobacter junii (test organism 27, Acinetobacter junii); 0.25 in the assay on Acinetobacter junii (test organism 28, Acinetobacter junii); above 4 in the assay on Acinetobacter junii (test organism 29, Acinetobacter junii); 2 with MRSA (test organism 3, MRSA); 4 in the assay on MRSA (test organism 4, MRSA). Moreover, the “Minimal Inhibitory Concentration (MIC)” value with MRSA (test organism 5, MRSA) is given as above 2; with Enterococcus faecalis (test organism 15, Enterococcus faecalis), 0.5; in the assay on Enterococcus faecalis (test organism 16, Enterococcus faecalis) it was “≦0.25”; in the assay with Enterococcus faecalis (test organism 17, Enterococcus faecalis) it was above 4; in the assay on Enterococcus faecalis (test organism 18, Enterococcus faecalis) it was above 2.
